Data: PMC8699473, “An Easily Expandable Multi-Drug LC-MS Assay for the Simultaneous Quantification of 57 Oral Antitumor Drugs in Human Plasma” (Cancers, 2021)

Tests used:
[1] = human
[2] = human; remark: listed apart in the source
[3] = 244 plasma samples; cited from earlier work

SMILES	Long-term stability, 1 month, -20°C Accuracy [%] ([1]; both)	Long-term stability, 1 month, -80°C Accuracy [%] ([1]; both)	Long-term stability, 2 month, -20°C Accuracy [%] ([1]; both)	Long-term stability, 2 month, -80°C Accuracy [%] ([1]; both)	Long-term stability, 3 month, -20°C Accuracy [%] ([1]; both)	Long-term stability, 3 month, -80°C Accuracy [%] ([1]; both)	Long-term stability, 6 weeks, 4°C, without daylight Accuracy [%] [1] [%]	Short-time stability (1h, 56°C) Accuracy [%] [2] [%]	Short-time stability (24h, 4°C, without daylight) Accuracy [%] [2] [%]	Short-time stability (24h, RT, with daylight) Accuracy [%] [2] [%]	Short-time stability (24h, RT, without daylight) Accuracy [%] [2] [%]	average plasma concentration [3] [ng/mL]	range of plasma concentration [3] [ng/mL]
Cc1ccc(C(=O)Nc2ccc(CN3CCN(C)CC3)c(C(F)(F)F)c2)cc1C#Cc1cnc2cccnn12 [Ponatinib]	96.0	92.6	87.7	99.1	91.3	96.8	83.5	30.7	95.7	89.6	91.7		
C[C@]12CC[C@H](O)CC1=CC[C@@H]1[C@@H]2CC[C@]2(C)C(c3cccnc3)=CC[C@@H]12 [Abiraterone]												9.3	2.0 to 49.8
